Patent publication US20240116900A1, “NEW CRYSTALLINE FORMS OF A KRAS G12C INHIBITOR COMPOUND” (NOVARTIS AG, priority 2020, published 2024)
Read-outs that look alike come from different tables or passages of the source.

Columns and labels:
[1] = Water sorption and desorption isotherms by Dynamic Vapor Sorption (DVS); assay type: physicochemical; details: for hygroscopicity / Change In Mass (%) - ref, Desorption / Change In Mass (%) - ref, Sorption: 25° C.; for hygroscopicity: 0 to 95% RH; for Change In Mass (%) - ref, Desorption / Change In Mass (%) - ref, Sorption: 40-0-95-0-40 (% RH)
Experimental: Water sorption and desorption isotherms were recorded at 25° C., 40° C. or 60° C. using a Dynamic Vapor Sorption (DVS) instrument as follows. The cycle used was as follows: 40-0-95-0-40 (% RH).

[2] = Granulation simulation experiments (XRPD after wetting and grinding); assay type: physicochemical
Experimental: Granulating solvent was added drop wise to the solid form being tested until the solid form was wetted sufficiently. The wet substance was ground manually. The solid form was evaluated for degree of crystallinity or form change by e.g., XRPD analysis and/or DSC analysis. Granulating solvents were water, pH 4.7, 50 mM acetate buffer, and pH 6.8, 50 mM phosphate buffer.

[3] = XRPD upon variation of humidity and temperature; assay type: physicochemical
[4] = Bulk stability studies (XRPD, HPLC degradation products); details: 1 week 50° C., 75% RH
Experimental: The stability of the crystalline form was investigated as follows. Bulk samples were analysed, e.g. by HPLC and/or XRPD after being exposed to various temperatures and residual humidities.

SMILES	Change In Mass (%) - ref, Desorption ([1]; Cycle 1, target RH 0.0%) [%]	Change In Mass (%) - ref, Sorption ([1]; Cycle 1, target RH 0.0%) [%]	Change In Mass (%) - ref, Desorption ([1]; Cycle 1, target RH 10.0%) [%]	Change In Mass (%) - ref, Sorption ([1]; Cycle 1, target RH 10.0%) [%]	Change In Mass (%) - ref, Desorption ([1]; Cycle 1, target RH 20.0%) [%]	Change In Mass (%) - ref, Sorption ([1]; Cycle 1, target RH 20.0%) [%]	Change In Mass (%) - ref, Desorption ([1]; Cycle 1, target RH 30.0%) [%]	Change In Mass (%) - ref, Sorption ([1]; Cycle 1, target RH 30.0%) [%]	Change In Mass (%) - ref, Desorption ([1]; Cycle 1, target RH 40.0%) [%]	Change In Mass (%) - ref, Sorption ([1]; Cycle 1, target RH 40.0%) [%]	Change In Mass (%) - ref, Sorption ([1]; Cycle 1, target RH 50.0%) [%]	Change In Mass (%) - ref, Sorption ([1]; Cycle 1, target RH 60.0%) [%]	Change In Mass (%) - ref, Sorption ([1]; Cycle 1, target RH 70.0%) [%]	Change In Mass (%) - ref, Sorption ([1]; Cycle 1, target RH 80.0%) [%]	Change In Mass (%) - ref, Sorption ([1]; Cycle 1, target RH 90.0%) [%]	Change In Mass (%) - ref, Sorption ([1]; Cycle 1, target RH […]) [%]	Change In Mass (%) - ref, Desorption ([1]; Cycle 2, target RH 0.0%) [%]	Change In Mass (%) - ref, Sorption ([1]; Cycle 2, target RH 0.0%) [%]	Change In Mass (%) - ref, Desorption ([1]; Cycle 2, target RH 10.0%) [%]	Change In Mass (%) - ref, Sorption ([1]; Cycle 2, target RH 10.0%) [%]	also measured
C=CC(=O)N1CC2(CC(n3nc(-c4ccc5c(cnn5C)c4)c(-c4c(Cl)c(C)cc5[nH]ncc45)c3C)C2)C1 [Hydrate HA]	0.002	0.002	2.638	2.390	3.008	2.782	3.381	3.184	3.838	3.660	4.295	5.234	6.244	7.007	7.633	7.973	0.000	0.000	2.659	2.388	water content corresponding to hosted water molecules ([1]; 2.5 molecules of water): 7.9%; hygroscopicity [1]: hygroscopic; water absorbed ([1]; 80% RH at 25° C.): up to 7.0%; Change In Mass (%) - ref, Desorption ([1]; Cycle 2, target RH 20.0%): 3.102%; Change In Mass (%) - ref, Sorption ([1]; Cycle 2, target RH 20.0%): 2.773%; Change In Mass (%) - ref, Desorption ([1]; Cycle 2, target RH 30.0%): 3.573%; Change In Mass (%) - ref, Sorption ([1]; Cycle 2, target RH 30.0%): 3.163%; Change In Mass (%) - ref, Desorption ([1]; Cycle 2, target RH 40.0%): 4.126%; Change In Mass (%) - ref, Sorption ([1]; Cycle 2, target RH 40.0%): 3.624%; Change In Mass (%) - ref, Desorption ([1]; Cycle 2, target RH 50.0%): 5.062%; Change In Mass (%) - ref, Desorption ([1]; Cycle 2, target RH 60.0%): 6.040%; Change In Mass (%) - ref, Desorption ([1]; Cycle 2, target RH 70.0%): 6.816%; Change In Mass (%) - ref, Desorption ([1]; Cycle 2, target RH 80.0%): 7.346%; Change In Mass (%) - ref, Desorption ([1]; Cycle 2, target RH 90.0%): 7.766%; Change In Mass (%) - ref, Desorption ([1]; Cycle 2, target RH […]): 7.973%; molecules of water hosted ([1]; depending on the relative humidity): up to 2.5 molecules; XRPD after granulation simulation ([2]; solvent for granulation: Water): no form change; form change on heating ([3]; at 80° C.): converts into an anhydrous form, namely Modification A; XRPD pattern on heating ([3]; heated at ambient relative humidity from 25° C. to 65° C.): remains unchanged; form change after equilibration (XRPD) (50° C. and 70° C.): formation of several solvates in cyclohexane, ethanol, isopropanol or 1,2-propanediol
C=CC(=O)N1CC2(CC(n3nc(-c4ccc5c(cnn5C)c4)c(-c4c(Cl)c(C)cc5[nH]ncc45)c3C)C2)C1 [Modification C]	−0.0018	−0.0018	0.0522	0.0639	0.0984	0.1010	0.1282	0.1365	0.1658	0.1764	0.2099	0.2719	0.2954	0.3628	0.4475	0.5450	−0.0143	−0.0143	0.0532	0.0434	XRPD after bulk storage [4]: No change; hygroscopicity [1]: non hygroscopic; Change In Mass (%) - ref, Desorption ([1]; Cycle 2, target RH 20.0%): 0.1019%; Change In Mass (%) - ref, Sorption ([1]; Cycle 2, target RH 20.0%): 0.0893%; Change In Mass (%) - ref, Desorption ([1]; Cycle 2, target RH 30.0%): 0.1500%; Change In Mass (%) - ref, Desorption ([1]; Cycle 2, target RH 40.0%): 0.2014%; Change In Mass (%) - ref, Sorption ([1]; Cycle 2, target RH 40.0%): 0.1725%; Change In Mass (%) - ref, Desorption ([1]; Cycle 2, target RH 50.0%): 0.2678%; Change In Mass (%) - ref, Desorption ([1]; Cycle 2, target RH 60.0%): 0.3212%; Change In Mass (%) - ref, Desorption ([1]; Cycle 2, target RH 70.0%): 0.3789%; Change In Mass (%) - ref, Desorption ([1]; Cycle 2, target RH 80.0%): 0.4299%; Change In Mass (%) - ref, Desorption ([1]; Cycle 2, target RH 90.0%): 0.5046%; Change In Mass (%) - ref, Desorption ([1]; Cycle 2, target RH […]): 0.5450%; form change after granulation simulation ([2]; aqueous media as the solvent for granulation): no form change; form change after equilibration (in ethanol, and methanol): converts to Hydrate HA; form change after equilibration (in isopropanol): converts into a mixture of HA and the isopropanol solvate
C=CC(=O)N1CC2(CC(n3nc(-c4ccc5c(cnn5C)c4)c(-c4c(Cl)c(C)cc5[nH]ncc45)c3C)C2)C1.O.O.O.O [Hydrate HB]	0.00	0.00	1.87	0.56	2.62	2.03	12.26	2.51	12.73	2.81	3.17	3.69	5.09	10.34	12.94	13.35	−0.09	−0.09	1.74	0.47	% Degradation Products, as measured by HPLC ([4]; area-% products): 3.97%; maximum water uptake ([1]; 25° C. and up to 95% RH): about 13%; Change In Mass (%) - ref, Desorption ([1]; Cycle 2, target RH 20.0%): 2.37%; Change In Mass (%) - ref, Sorption ([1]; Cycle 2, target RH 20.0%): 1.88%; Change In Mass (%) - ref, Desorption ([1]; Cycle 2, target RH 30.0%): 11.38%; Change In Mass (%) - ref, Sorption ([1]; Cycle 2, target RH 30.0%): 2.32%; Change In Mass (%) - ref, Desorption ([1]; Cycle 2, target RH 40.0%): 11.87%; Change In Mass (%) - ref, Sorption ([1]; Cycle 2, target RH 40.0%): 2.69%; Change In Mass (%) - ref, Desorption ([1]; Cycle 2, target RH 50.0%): 12.24%; Change In Mass (%) - ref, Desorption ([1]; Cycle 2, target RH 60.0%): 12.53%; Change In Mass (%) - ref, Desorption ([1]; Cycle 2, target RH 70.0%): 12.78%; Change In Mass (%) - ref, Desorption ([1]; Cycle 2, target RH 80.0%): 13.02%; Change In Mass (%) - ref, Desorption ([1]; Cycle 2, target RH 90.0%): 13.24%; Change In Mass (%) - ref, Desorption ([1]; Cycle 2, target RH […]): 13.35%; form change at 0% RH ([3]; 0% RH): completely dehydrates; form change on heating ([3]; further heating to 70° C. and above): converts to an anhydrous form, Modification B; XRPD pattern on heating ([3]; heated from 25° C. to 40° C.): changes to hydrate HC
